Values quoted from earlier work in patent publication US9481672B2 (priority 2012, dated 2016).

Tested on: chymase
Conditions: hamsters, myocardial infarction model

For CCOc1ccccc1CC1C(=O)N(C(=O)NC(c2ccc(C)cc2)c2ccc(C)cc2)C1Oc1ccc(C(=O)O)cc1 (stereo not drawn) [BCEAB], the chymase activity is listed as “reduced”, the haemodynamics is listed as “improved” and the mortality is listed as “reduced”.
